In patent US10316020B2, “Indane derivatives and the use thereof as soluble guanylate cyclase activators” (NOVARTIS AG, priority 2015, dated 2019):
Read-outs that look alike come from different tables or passages of the source.

What was measured:
[1] = target: T1, soluble guanylate cyclase (GUCYA3/GUCYB3) overexpressed in CHO cells (Homo sapiens, UniProt Q02108+Q02153); assay: CHO cellular assay (cGMP production, HTRF); format: cell-based
T1 construct: expressed in transfected cells
T1 sequence (Q02108 1-690 partner): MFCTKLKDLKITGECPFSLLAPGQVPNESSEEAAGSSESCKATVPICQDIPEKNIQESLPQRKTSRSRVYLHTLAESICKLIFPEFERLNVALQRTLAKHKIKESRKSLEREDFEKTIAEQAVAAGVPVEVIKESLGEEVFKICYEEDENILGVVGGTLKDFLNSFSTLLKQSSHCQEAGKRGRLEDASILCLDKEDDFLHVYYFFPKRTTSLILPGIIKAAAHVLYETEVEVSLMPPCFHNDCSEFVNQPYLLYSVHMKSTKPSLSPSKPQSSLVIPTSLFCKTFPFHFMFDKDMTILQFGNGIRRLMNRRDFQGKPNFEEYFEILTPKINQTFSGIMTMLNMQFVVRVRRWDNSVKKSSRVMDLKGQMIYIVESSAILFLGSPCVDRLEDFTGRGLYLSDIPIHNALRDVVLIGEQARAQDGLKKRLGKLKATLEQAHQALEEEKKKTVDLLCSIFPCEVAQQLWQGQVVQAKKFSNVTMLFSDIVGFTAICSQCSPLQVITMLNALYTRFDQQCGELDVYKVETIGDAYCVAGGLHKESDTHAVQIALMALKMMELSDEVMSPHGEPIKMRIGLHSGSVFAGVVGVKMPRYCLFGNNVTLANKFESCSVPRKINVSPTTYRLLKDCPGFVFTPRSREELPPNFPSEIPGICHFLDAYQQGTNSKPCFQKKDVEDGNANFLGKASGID
T1 sequence (Q02153 1-619): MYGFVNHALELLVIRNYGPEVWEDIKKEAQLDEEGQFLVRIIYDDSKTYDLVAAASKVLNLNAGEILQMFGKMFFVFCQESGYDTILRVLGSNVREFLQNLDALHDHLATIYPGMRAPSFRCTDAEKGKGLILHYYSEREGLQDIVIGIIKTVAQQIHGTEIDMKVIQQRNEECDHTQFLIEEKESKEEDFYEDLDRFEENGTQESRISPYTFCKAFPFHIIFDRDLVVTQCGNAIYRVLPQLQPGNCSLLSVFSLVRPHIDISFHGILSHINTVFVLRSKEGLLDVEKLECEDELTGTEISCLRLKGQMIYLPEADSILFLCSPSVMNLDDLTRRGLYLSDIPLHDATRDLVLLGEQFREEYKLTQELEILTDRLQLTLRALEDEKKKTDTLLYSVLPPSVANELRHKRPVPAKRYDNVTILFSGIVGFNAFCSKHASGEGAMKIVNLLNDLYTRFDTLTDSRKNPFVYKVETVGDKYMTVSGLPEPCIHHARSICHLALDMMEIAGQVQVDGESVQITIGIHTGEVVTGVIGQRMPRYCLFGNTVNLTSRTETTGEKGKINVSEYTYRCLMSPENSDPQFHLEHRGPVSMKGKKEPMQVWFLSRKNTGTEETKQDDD
From the text: Chinese hamster ovary (CHO) cells overexpressing soluble guanylate cyclase were generated to test the effect of sGC activators in a cellular context. Human cDNAs for GUCYA3 (RefSeq: NM_000856.3) and GUCYB3 (RefSeq: NM_000857.1) were amplified by PCR from a HUVEC (Human Umbilical Vein Endothelial Cells) cDNA library and cloned into mammalian expression vectors. CHO K1 cells (ATCC CCL-61) were transfected using Lipofectamine 2000 following manufacturer's instructions and stably expressing clones were identified by antibiotic selection. CHO GUCY clone 8E10 was used for subsequent experiments.
Cells were seeded at a density of 3000 cells/well in white 384-well proxyplates (Perkin Elmer) and incubated overnight, then the medium was removed and cells were washed with assay buffer (HBSS, 0.1% BSA, 1 mM IBMX, 20 uM ODQ). sGC activators were serially diluted in DMSO, then diluted in assay buffer prior to adding to cells (10 ul/well, final DMSO concentration 0.5%). Cells were incubated with compounds for 1 h at room temperature, then assayed for cGMP production using Cisbio cGMP HTRF kit (62GM2PEC) according to manufacturer's instructions.
The EC50s are calculated based on the amount of cGMP interpolated from the standard curve, using a 4-parameter sigmoidal dose-response.
Compounds of invention are active on sGC activation. Data in Table 1 collected using the assay of Biological Example 1.

[2] = Pharmacokinetic clearance in intravenously dosed rats; format: in vivo; conditions: male, Sprague-Dawley, rat, whole blood, iv, 0.5 mg/kg
Experimental: Sprague-Daley rats were administered sGC activators intravenously to assess the systemic clearance rates of the compounds from blood by non-compartmental analysis. Compounds with high clearance rates may be less prone to exert unwanted systemic (non-local) pharmocoligcal effects, which may be a benefical property for a compound intended to be dosed via topical ocular administration with the aim of exerting a pharmacological reponse locally in the eye.
In order to assess the pharmacokinetic parameters, male Sprague-Dawley rats were given 1 mL/Kg of the dosing solution (delineated in the table below) containing a test article (0.5 mg/kg) per kg of body weight via slow intravenous injection into an indwelling jugular vein catheter in a discrete PK study. Alternatively, male Sprague-Dawley rats were given 1 mL/Kg of the dosing solution containing three test articles (0.5 mg/kg each, 1.5 mg/kg total) per kg of body weight via slow intravenous injection into an indwelling jugular vein catheter in a cassette PK study. Diet and water was provided ad libitum without exception. At specified time following a single intravenous bolus injection, approximately 100 μL of whole blood was collected from indwelling catheter in jugular vein. The blood was stored frozen at −20° C. before an LC-MS/MS method was used to quantitate drug levels in the blood. All pharmacokinetic (PK) parameters were derived from concentration-time data by non-compartmental analyses using WinNonlin Phoenix version 6.4 (Certara, St. Louis, Mo.). For the intravenous dose, the concentration of unchanged compound at time 0 was calculated based on a log-linear regression of first two data points to back-extrapolate C(0). The area under the concentration-time curve was calculated using the linear trapezoidal rule.
Data in Table 2 collected using the assay of Biological Example 2 compares compounds from the present invention to other sGC activators previously disclosed PCT/IB2015/055006 filed Jul.

[3] = CHO cellular assay, as repeated in Table 2, read-out: EC50 from biological Example #1
[4] = CHO GUCY clone 8E10, assay buffer with 1 mM IBMX, 20 uM ODQ, 1 h at room temperature, cGMP HTRF, quantification limit 0.0005 μM, read-out: Mean EC50
[5] = i.v. 0.5 mg/kg each, three test articles, Cassette - E (10% propylene glycol, 10% Solutol HS15, PBS)
[6] = i.v. 0.5 mg/kg, Discrete - D (10% propylene glycol, 10% Solutol HS15, PBS)

| Structure (SMILES) | EC50 [1, 3] [nM] | EC50 [1, 4] [nM] | clearance [2, 5] [mL/min/kg] | clearance [2, 6] [mL/min/kg] | other results |
| --- | --- | --- | --- | --- | --- |
| Cc1cc(C2CCN(C(=O)C3CC3)CC2)ccc1NC1CCc2cccc(-c3cccc(-n4ncc(C(=O)O)c4C)c3)c21 (single isomer, unassigned; (+)) [(+)-1-(3-(3-((4-(1-(cyclopropanecarbonyl)piperidin-4-yl)-2-methylphenyl)amino)-2,3-dihydro-1H-inden-4-yl)phenyl)-5-methyl-1H-pyrazole-4-carboxylic acid, reference compound] | < 0.5 |  |  |  | clearance ([2]; i.v. 0.5 mg/kg each, three test articles, Cassette - F (20% propylene glycol, 10% Solutol HS15, PBS)): 24.9 mL/min/kg |
| Cc1cc(C2CCN(C(=O)[C@H](C)O)CC2)ccc1NC1CCc2cccc(-c3cccc(-n4ncc(C(=O)O)c4C)n3)c21 (single isomer, unassigned; (+)) [reference compound] | < 0.5 |  | 48.3 |  |  |
| Cc1cc(C2CCN(C(=O)C3CC3)CC2)ccc1CC1CCc2cccc(-c3cccc(-n4ncc(C(=O)O)c4C)n3)c21 (single isomer, unassigned; (+)) [(+)-1-(6-(3-(4-(1-(cyclopropanecarbonyl)piperidin-4-yl)-2-methylbenzyl)-2,3-dihydro-1H-inden-4-yl)pyridin-2-yl)-5-methyl-1H-pyrazole-4-carboxylic acid] | < 0.5 |  | 97.2 | 25.6 |  |
| CCc1cc(OC2CCc3cccc(-c4cccc(-n5ncc(C(=O)O)c5CC)n4)c32)ccc1C1CCN(C(=O)C2CC2)CC1 (single isomer, unassigned; (+)) [(+)-1-(6-(3-(4-(1-(cyclopropanecarbonyl)piperidin-4-yl)-3-ethylphenoxy)-2,3-dihydro-1H-inden-4-yl)pyridin-2-yl)-5-ethyl-1H-pyrazole-4-carboxylic acid] | < 0.5 |  | 6.6 |  | clearance ([2]; i.v. 0.5 mg/kg, Discrete - G (20% propylene glycol, 50% of 20% Solutol HS15, water)): 14 mL/min/kg |
| CCc1cc(NC2CCc3cccc(-c4cccc(-n5ncc(C(=O)O)c5CC)n4)c32)ccc1C1=CCN(C(=O)C2CC2)CC1 (single isomer, unassigned; (+)) [(+)-1-(6-(3-((4-(1-(cyclopropanecarbonyl)-1,2,3,6-tetrahydropyridin-4-yl)-3-ethylphenyl)amino)-2,3-dihydro-1H-inden-4-yl)pyridin-2-yl)-5-ethyl-1H-pyrazole-4-carboxylic acid, reference compound] | < 0.5 |  |  | 38 |  |
| CCc1cc(O[C@H]2CCc3cccc(-c4cccc(-n5ncc(C(=O)O)c5OC)c4)c32)ccc1C1CCN(C(=O)C2CC2)CC1 [Example 5, (+)-(S)-1-(3-(3-(4-(1-(Cyclopropanecarbonyl)piperidin-4-yl)-3-ethylphenoxy)-2,3-dihydro-1H-inden-4-yl)phenyl)-5-methoxy-1H-pyrazole-4-carboxylic acid] | < 0.5 | < 0.5 |  | 89 |  |

More lines, main results first:

| EC50 [1, 3] [nM] | EC50 [1, 4] [nM] | clearance [2, 5] [mL/min/kg] | clearance [2, 6] [mL/min/kg] | Structure (SMILES) | other results |
| --- | --- | --- | --- | --- | --- |
| < 0.6 | < 0.6 |  |  | CCc1cc(C[C@H]2CCc3cccc(-c4cccc(-n5ncc(C(=O)O)c5OC)c4)c32)ccc1C1CCN(C(=O)C2CC2)CC1 [Example 1A, (+)-(R)-1-(3-(3-(4-(1-(Cyclopropanecarbonyl)piperidin-4-yl)-3-ethylbenzyl)-2,3-dihydro-1H-inden-4-yl)phenyl)-5-methoxy-1H-pyrazole-4-carboxylic acid] | clearance ([2]; i.v. 0.5 mg/kg, Discrete - A (10% propylene glycol, 1 eq NaOH, 25% of 20% Solutol HS15, PBS)): > 100 mL/min/kg |
| < 0.5 | < 0.5 |  |  | CCc1cc(N[C@H]2CCc3cccc(-c4cccc(-n5ncc(C(=O)O)c5OC)c4)c32)ccc1C1CCN(C(=O)C2CC2)CC1 [Example 3A, (+)-(S)-1-(3-(3-((4-(1-(Cyclopropanecarbonyl)piperidin-4-yl)-3-ethylphenyl)amino)-2,3-dihydro-1H-inden-4-yl)phenyl)-5-methoxy-1H-pyrazole-4-carboxylic acid] | clearance ([2]; i.v. 0.5 mg/kg, Discrete - B (20% PEG 300, 1 eq NaOH, 10% Solutol HS15, PBS)): > 100 mL/min/kg |
| 7 | 7 |  | 98 | CCc1cc(NC2CCc3cccc(-c4cccc(-n5ncc(C(=O)O)c5N)n4)c32)ccc1C1CCN(C(=O)C2CC2)CC1 (single isomer, unassigned; (+)) [Example 18A, (+)-5-Amino-1-(6-(3-((4-(1-(cyclopropanecarbonyl)piperidin-4-yl)-3-ethylphenyl)amino)-2,3-dihydro-1H-inden-4-yl)pyridin-2-yl)-1H-pyrazole-4-carboxylic acid] |  |
| < 0.5 | < 0.5 |  |  | CCc1cc(NC2CCc3cccc(-c4cccc(-n5ncc(C(=O)O)c5OC)c4)c32)ccc1C1CCN(C(=O)[C@H](C)O)CC1 (single isomer, unassigned; (+)) [Example 4A] | clearance ([2]; i.v. 0.5 mg/kg, Discrete - C (20% PEG 300, 10% Solutol HS15, PBS)): > 100 mL/min/kg |
